Our source for the IC50 values is patent publication US9586931B2 (Merck Sharp & Dohme Corp., priority 2012, dated 2017).

The first experiment addresses T1, recombinant human GST-Syk (Homo sapiens, UniProt P43405).
T1 construct: purchased Carna Biosciences 08-176
The experiment is described as follows: Homogeneous Time-Resolved Fluorescence (HTRF) assay for the recombinant human Syk enzyme. The experiment is classed as biochemical. Particulars: recombinant human GST-Syk 5 pM, ATP 25 μM, 10-dose titration 10 μM to 0.508 nM; read-out: rhSYK Activity IC50. The method, boiled down: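 Detection used time-resolved fluorescence 30 min after adding a quench mix (40 mM EDTA, 15 mM Tris pH 7.5, 0.01% Tween 20) containing 2 nM Europium anti-pTyr antibody and 70 nM streptavidin-APC. This followed 45 min of room-temperature peptide phosphorylation by recombinant GST-tagged human Syk.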
(Time-resolved FRET reads energy transfer from a long-lived donor to a nearby acceptor.)
With `Cc1cc(Nc2cc(C(F)(F)F)ccn2)nc(-c2cn([C@@H](C)C(=O)NCC(=O)O)nn2)c1` [Example 3.15, N-{(2S)-2-[4-(4-methyl-6-{[4-(trifluoromethyl)pyridin-2-yl]amino}pyridin-2-yl)-1H-1,2,3-triazol-1-yl]propanoyl}glycine], the IC50 came out at 8.9 nM.

Consider `Cc1cc(Nc2cc(C(F)(F)F)ccn2)nc(-c2cn(C(C)C(=O)NC3CCS(=O)(=O)C3)nn2)c1` (racemic) [Example 1.2, N-(1,1-Dioxidotetrahydrothiophen-3-yl)-2-[4-(4-methyl-6-{[4-(trifluoromethyl)pyridin-2-yl]amino}pyridin-2-yl)-1H-1,2,3-triazol-1-yl]propanamide (racemic)], for which the IC50 came to 42.8 nM.

In the case of `Cc1cc(Nc2cc(C(F)(F)F)ccn2)nc(-c2cn(CC3(O)CCOC3)nn2)c1` (single isomer, unassigned) [Example 5.12, 3-{[4-(4-methyl-6-{[4-(trifluoromethyl)pyridin-2-yl]amino}pyridin-2-yl)-1H-1,2,3-triazol-1-yl]methyl}tetrahydrofuran-3-ol], the IC50 is 11.2 nM.

On to `Cc1cc(Nc2cc(C(F)(F)F)ccn2)nc(-c2cn([C@H](C)C(=O)NCC(N)=O)nn2)c1` [Example 1.21, (2R)-N-(2-amino-2-oxoethyl)-2-[4-(4-methyl-6-{[4-(trifluoromethyl)pyridin-2-yl]amino}pyridin-2-yl)-1H-1,2,3-triazol-1-yl]propanamide], for which the IC50 was 23.1 nM. On the same count and under the same terms, then `COC(=O)[C@H]1CC[C@](O)(c2cn(-c3cc(C)cc(Nc4nccc(C(F)(F)F)n4)c3)nn2)CC1(C)C` [Example 15.10, methyl (1S,4R)-4-hydroxy-2,2-dimethyl-4-[1-(3-methyl-5-{[4-(trifluoromethyl)pyrimidin-2-yl]amino}phenyl)-1H-1,2,3-triazol-4-yl]cyclohexanecarboxylate], with 179 nM. On the same count and under the same terms, for `COC(=O)C1CCC(n2cc(-c3cc(C)cc(Nc4cc(C(F)(F)F)ccn4)n3)nn2)CC1(C)C` (stereo not shown) [Example 9.3, methyl 2,2-dimethyl-4-[4-(4-methyl-6-{[4-(trifluoromethyl)pyridin-2-yl]amino}pyridin-2-yl)-1H-1,2,3-triazol-1-yl]cyclohexane-carboxylate] the value was 313 nM; for `Cc1cc(Nc2ncc(Cl)c(C)n2)cc(-c2cn(CC(C)(O)C(C)(C)O)nn2)c1` (stereo not shown) [Example 21.30, 1-(4-{3-[(5-chloro-4-methylpyrimidin-2-yl)amino]-5-methylphenyl}-1H-1,2,3-triazol-1-yl)-2,3-dimethylbutane-2,3-diol], 88.5 nM; for `Cc1cc(Nc2ncc(F)c(C(F)F)n2)cc(-c2cn(C3CCCCC3O)nn2)c1` (single isomer, unassigned) [Example 7.30, 2-[4-(3-{[4-(difluoromethyl)-5-fluoropyrimidin-2-yl]amino}-5-methylphenyl)-1H-1,2,3-triazol-1-yl]cyclohexanol], 9.9 nM.

For `Cc1cc(Nc2nccc(C(F)F)n2)cc(-c2cn(C3CCCCC3(C)O)nn2)c1` (single isomer, unassigned) [Example 7.19, 2-[4-(3-{[4-(difluoromethyl)pyrimidin-2-yl]amino}-5-methylphenyl)-1H-1,2,3-triazol-1-yl]-1-methylcyclohexanol], the IC50 amounted to 16.2 nM.

Turning to `COC(=O)CCn1cc(-c2cc(C)cc(Nc3cc(C(F)(F)F)ccn3)n2)nn1` [Example 5.10, methyl 3-[4-(4-methyl-6-{[4-(trifluoromethyl)pyridin-2-yl]amino}pyridin-2-yl)-1H-1,2,3-triazol-1-yl]propanoate], the IC50 came to 40.4 nM. The same measure, in the same setting: then `Cc1cc(Nc2cc(C(F)(F)F)ccn2)nc(-c2cn(C3CCCCC3O)nn2)c1` (racemic) [Example 5.89, 2-[4-(4-methyl-6-{[4-(trifluoromethyl)pyridin-2-yl]amino}pyridin-2-yl)-1H-1,2,3-triazol-1-yl]cyclohexanol], with 4 nM; and `Cc1cc(Nc2nccc(C(F)(F)F)n2)cc(-c2cn(CC(=O)N3[C@@H](C)COC[C@@H]3C)nn2)c1` (relative stereo) [Example 5.47, N-[3-(1-{2-[trans-3,5-dimethylmorpholin-4-yl]-2-oxoethyl}-1H-1,2,3-triazol-4-yl)-5-methylphenyl]-4-(trifluoromethyl)pyrimidin-2-amine], with 80.2 nM. Same read-out and setting: then `Cc1cc(Nc2nccc(C(F)F)n2)cc(-c2cn(CC3OC(=O)NC3C)nn2)c1` (single isomer, unassigned) [Example 7.41, 5-{[4-(3-{[4-(difluoromethyl)pyrimidin-2-yl]amino}-5-methylphenyl)-1H-1,2,3-triazol-1-yl]methyl}-4-methyl-1,3-oxazolidin-2-one], with 12.8 nM; and `Cc1cc(Nc2cc(C(F)(F)F)ccn2)nc(-c2cn(Cc3cc[nH]n3)nn2)c1` [Example 5.111, 4-methyl-6-[1-(1H-pyrazol-3-ylmethyl)-1H-1,2,3-triazol-4-yl]-N-[4-(trifluoromethyl)pyridin-2-yl]pyridin-2-amine], with 2.2 nM. The same measure, in the same setting: for `CCOC(=O)C1(n2cc(-c3cc(C)cc(Nc4cc(C(F)(F)F)ccn4)n3)nn2)CCC1` [Example 8.2, ethyl 1-[4-(4-methyl-6-{[4-(trifluoromethyl)-pyridin-2-yl]amino}-pyridin-2-yl)-1H-1,2,3-triazol-1-yl]cyclobutane-carboxylate] the value was 71.8 nM. For `Cc1cc(Nc2cc(C(F)(F)F)ccn2)nc(-c2cn(C3CCC(C(=O)O)C(C)(C)C3)nn2)c1` (single isomer, unassigned) [Example 3.8, 2,2-dimethyl-4-[4-(4-methyl-6-{[4-(trifluoromethyl)pyridin-2-yl]amino}pyridin-2-yl)-1H-1,2,3-triazol-1-yl]cyclohexanecarboxylic acid], the IC50 was determined as 9.8 nM. Same read-out and setting: for `COc1nc(Nc2cc(C)cc(-c3cn(CC(C)(O)C(C)(C)O)nn3)c2)ncc1F` (stereo not shown) [Example 21.33, 1-(4-{3-[(5-fluoro-4-methoxypyrimidin-2-yl)amino]-5-methylphenyl}-1H-1,2,3-triazol-1-yl)-2,3-dimethylbutane-2,3-diol] the value was 66.3 nM; for `Cc1cc(Nc2nccc(C(F)F)n2)cc(-c2cn(CC3(C)CNC(=O)O3)nn2)c1` (single isomer, unassigned) [Example 7.32, 5-{[4-(3-{[4-(difluoromethyl)pyrimidin-2-yl]amino}-5-methylphenyl)-1H-1,2,3-triazol-1-yl]methyl}-5-methyl-1,3-oxazolidin-2-one], 5 nM; for `COc1ccnc(Nc2cc(C)cc(-c3cn(CC(C)(O)C(C)(C)O)nn3)c2)n1` (stereo not shown) [Example 21.23, 1-(4-{3-[(4-methoxypyrimidin-2-yl)amino]-5-methylphenyl}-1H-1,2,3-triazol-1-yl)-2,3-dimethylbutane-2,3-diol], 27.9 nM. Same read-out and setting: for `Cc1cc(Nc2nccc(C(F)F)n2)cc(-c2cn(Cc3ccc(=O)[nH]c3)nn2)c1` [Example 33, 5-((4-(3-((4-(Difluoromethyl)pyrimidin-2-yl)amino)-5-methylphenyl)-1H-1,2,3-triazol-1-yl)methyl)pyridin-2(3H)-one] the value was 3.7 nM. On the same count and under the same terms, then `Cc1cc(Nc2cc(C(F)(F)F)ccn2)nc(-c2cn(Cc3cnc(C)[nH]3)nn2)c1` [Example 5.104, 4-methyl-6-{1-[(2-methyl-1H-imidazol-5-yl)methyl]-1H-1,2,3-triazol-4-yl}-N-[4-(trifluoromethyl)pyridin-2-yl]pyridin-2-amine], with 3.2 nM; and `Cc1cc(Nc2nccc(C3CC3)n2)cc(-c2cn(CC(C)(O)C(C)(C)O)nn2)c1` (stereo not shown) [Example 21.26, 1-(4-{3-[(4-cyclopropylpyrimidin-2-yl)amino]-5-methylphenyl}-1H-1,2,3-triazol-1-yl)-2,3-dimethylbutane-2,3-diol], with 12.7 nM; and `Cc1cc(Nc2cc(C(F)(F)F)ccn2)nc(-c2cn(C(C)C(=O)N3CCC(c4ccncc4)C3)nn2)c1` (stereo not shown) [Example 1.53, 4-methyl-6-{1-[1-methyl-2-oxo-2-(3-pyridin-4-ylpyrrolidin-1-yl)ethyl]-1H-1,2,3-triazol-4-yl}-N-[4-(trifluoromethyl)pyridin-2-yl]pyridin-2-amine], with 34.7 nM.

On to `Cc1cc(Nc2nccc(C(F)F)n2)cc(-c2cn(CC(C)(O)CO)nn2)c1` (single isomer, unassigned) [Example 21.8, 3-[4-(3-{[4-(difluoromethyl)pyrimidin-2-yl]amino}-5-methylphenyl)-1H-1,2,3-triazol-1-yl]-2-methylpropane-1,2-diol], for which the IC50 was 13.1 nM. On the same count and under the same terms, then `Cc1cc(Nc2nccc(C(F)(F)F)n2)cc(-c2cn(C3CCC(C(=O)O)CC3)nn2)c1` (stereo not shown) [Example 3.16, 4-[4-(3-methyl-5-{[4-(trifluoromethyl)pyrimidin-2-yl]amino}phenyl)-1H-1,2,3-triazol-1-yl]cyclohexanecarboxylic acid], with 33.3 nM. On to `CCC(O)Cn1cc(-c2cc(C)cc(Nc3cc(C(F)(F)F)ccn3)n2)nn1` (racemic) [Example 5.5, 1-[4-(4-methyl-6-{[4-(trifluoromethyl)pyridin-2-yl]amino}pyridin-2-yl)-1H-1,2,3-triazol-1-yl]butan-2-ol], for which the IC50 came out at 15.8 nM. The same measure, in the same setting: for `Cc1cc(Nc2cc(C(F)(F)F)ccn2)nc(-c2cn([C@@H](C)C(=O)NCC(N)=O)nn2)c1` [Example 1.22, (2S)-N-(2-amino-2-oxoethyl)-2-[4-(4-methyl-6-{[4-(trifluoromethyl)pyridin-2-yl]amino}pyridin-2-yl)-1H-1,2,3-triazol-1-yl]propanamide] the value was 22.8 nM.

Staying with this experiment, now noted: rhSYK Activity IC50, recombinant human GST-Syk 5 pM, ATP 25 μM, 10-dose titration 10 μM to 0.508 nM.
Take `Cc1cc(Nc2nccc(C(F)(F)F)n2)cc(-c2cn(CCNC(N)=O)nn2)c1` [Example 5.56, 1-{2-[4-(3-methyl-5-{[4-(trifluoromethyl)pyrimidin-2-yl]amino}phenyl)-1H-1,2,3-triazol-1-yl]ethyl}urea]: the IC50 was found to be 76.8 nM.

One may read the IC50 as the concentration needed to halve the response being measured.
